Key:
D(3) dopamine receptor [1] = target: D(3) dopamine receptor (Rattus norvegicus, UniProt P19020); experiment: Displacement of [3H]-R(+)-7-OHDPAT from dopamine D3 receptor in rat brain homogenates; format: tissue-based
[2] = Displacement of [3H]Spiperone from dopamine D2 like receptor in rat brain homogenates; format: tissue-based
[3] = Displacement of [3H]SCH23390 from dopamine D1 like receptor in rat brain homogenates; format: tissue-based
Rattus norvegicus = species: Rattus norvegicus; experiment: Selectivity ratio of Ki for dopamine D1 like receptor in rat brain homogenates to Ki for dopamine D3 receptor in rat brain homogenates; format: tissue-based
[4] = Selectivity ratio of dopamine D2 receptor to dopamine D3 receptor
[5] = Selectivity ratio of dopamine D1 like receptor to dopamine D3 receptor
D(3) dopamine receptor [6] = target: D(3) dopamine receptor (Homo sapiens, UniProt P35462); experiment: Agonist activity at human dopamine D3 receptor expressed in CHO cells by mitogenesis assay; format: functional, cell-based
D(3) dopamine receptor (Homo sapiens, UniProt P35462), sequence (P35462 whole entry): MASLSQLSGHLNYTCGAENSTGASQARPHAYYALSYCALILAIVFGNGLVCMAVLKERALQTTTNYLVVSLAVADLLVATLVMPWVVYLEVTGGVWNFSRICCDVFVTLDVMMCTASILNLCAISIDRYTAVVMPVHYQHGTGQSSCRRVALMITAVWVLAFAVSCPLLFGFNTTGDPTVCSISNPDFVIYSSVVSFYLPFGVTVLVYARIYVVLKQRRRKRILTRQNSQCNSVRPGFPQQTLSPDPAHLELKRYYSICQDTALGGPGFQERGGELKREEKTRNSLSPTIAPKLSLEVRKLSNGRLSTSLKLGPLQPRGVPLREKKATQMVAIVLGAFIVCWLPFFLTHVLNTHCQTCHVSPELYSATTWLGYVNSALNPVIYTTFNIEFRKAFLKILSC

D(3) dopamine receptor (Rattus norvegicus, UniProt P19020), sequence (P19020 whole entry): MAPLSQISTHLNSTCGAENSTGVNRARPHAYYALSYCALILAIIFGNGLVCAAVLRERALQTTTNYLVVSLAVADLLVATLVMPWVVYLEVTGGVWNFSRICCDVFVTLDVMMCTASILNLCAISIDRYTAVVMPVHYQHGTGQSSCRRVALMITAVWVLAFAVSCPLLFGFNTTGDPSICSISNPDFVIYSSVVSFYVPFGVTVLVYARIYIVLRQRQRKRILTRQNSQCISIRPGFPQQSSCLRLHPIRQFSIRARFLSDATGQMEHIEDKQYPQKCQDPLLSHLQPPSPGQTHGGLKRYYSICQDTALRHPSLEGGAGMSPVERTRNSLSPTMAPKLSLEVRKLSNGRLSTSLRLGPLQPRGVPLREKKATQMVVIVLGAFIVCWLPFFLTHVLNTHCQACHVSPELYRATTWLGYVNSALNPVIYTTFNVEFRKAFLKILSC

Ki (D(3) dopamine receptor [1]) | Ki [2] | Ki [3] | Ratio Ki (Rattus norvegicus) | Selectivity ratio [4] | Selectivity ratio [5] | EC50 (D(3) dopamine receptor [6]) | Compound
1.9 nM | 23 nM | 37200 nM | 19900 | – | – | – | CCCN(CC[C@H]1CC[C@H](NC(=O)c2ccc(-n3ccnc3)cc2)CC1)[C@H]1CCc2nc(N)sc2C1
3.5 nM | 633 nM | 11400 nM | 3240 | – | – | – | CCCN(CC[C@H]1CC[C@H](NC(=O)c2ccc(-c3noc(C4CC4)n3)cc2)CC1)[C@H]1CCc2nc(N)sc2C1
9.3 nM | 122 nM | 8890 nM | 953 | – | – | – | CCCN(CC[C@H]1CC[C@H](NC(=O)/C=C/c2cccc(OC)c2)CC1)[C@H]1CCc2nc(N)sc2C1
1.6 nM | 88 nM | 11300 nM | 6050 | – | – | – | CCCN(CC[C@H]1CC[C@H](NC(=O)c2ccc3ccccc3n2)CC1)[C@H]1CCc2nc(N)sc2C1
1.2 nM | 30 nM | 5440 nM | 4650 | – | – | – | CCCN(CC[C@H]1CC[C@H](NC(=O)/C=C/c2ccccc2Cl)CC1)[C@H]1CCc2nc(N)sc2C1
0.78 nM | 38 nM | 21300 nM | 27500 | – | – | – | CCCN(CC[C@H]1CC[C@H](NS(=O)(=O)c2ccc(OC)cc2)CC1)[C@H]1CCc2nc(N)sc2C1
2.9 nM | 92 nM | 10000 nM | 3510 | – | – | – | CCCN(CC[C@H]1CC[C@H](NC(=O)/C=C/c2ccccc2F)CC1)[C@H]1CCc2nc(N)sc2C1
1.1 nM | 32 nM | 24700 nM | 21800 | – | – | – | CCCN(CC[C@H]1CC[C@H](NC(=O)c2cccc(-n3ccnc3)c2)CC1)[C@H]1CCc2nc(N)sc2C1
2 nM | 470 nM | 10900 nM | 5370 | – | – | – | CCCN(CC[C@H]1CC[C@H](NC(=O)c2ccc(-c3noc(C(C)C)n3)cc2)CC1)[C@H]1CCc2nc(N)sc2C1
3 nM | 43 nM | 59700 nM | 19900 | – | – | – | CCCN(CC[C@H]1CC[C@H](NC(=O)c2cccc(-n3cncn3)c2)CC1)[C@H]1CCc2nc(N)sc2C1
2.4 nM | 56 nM | 14000 nM | 5960 | – | – | – | CCCN(CC[C@H]1CC[C@H](NC(=O)c2ccc(-n3cncn3)cc2)CC1)[C@H]1CCc2nc(N)sc2C1
2 nM | 45 nM | 46900 nM | 23800 | – | – | – | CCCN(CC[C@H]1CC[C@H](NC(=O)c2ccccc2-n2cccn2)CC1)[C@H]1CCc2nc(N)sc2C1
9.9 nM | 80 nM | 6610 nM | 666 | – | – | – | CCCN(CC[C@H]1CC[C@H](NC(=O)/C=C/c2cccc(F)c2)CC1)[C@H]1CCc2nc(N)sc2C1
1.3 nM | 442 nM | 34600 nM | 27000 | – | – | – | CCCN(CC[C@H]1CC[C@H](NC(=O)c2ccc(-c3noc(C)n3)cc2)CC1)[C@H]1CCc2nc(N)sc2C1
1 nM | 66 nM | 4670 nM | 4670 | – | – | – | CCCN(CC[C@H]1CC[C@H](NC(=O)/C=C/c2ccc(F)cc2)CC1)[C@H]1CCc2nc(N)sc2C1
0.73 nM | 359 nM | 9940 nM | 13700 | – | – | 4.3 nM | CCCN(CC[C@H]1CC[C@H](NC(=O)c2cccc(-c3noc(C)n3)c2)CC1)[C@H]1CCc2nc(N)sc2C1
6.7 nM | 94 nM | 8030 nM | 1200 | – | – | – | CCCN(CC[C@H]1CC[C@H](NC(=O)/C=C/c2ccc(OC)cc2)CC1)[C@H]1CCc2nc(N)sc2C1
4.5 nM | 133 nM | 8150 nM | 1810 | – | – | – | CCCN(CC[C@H]1CC[C@H](NS(=O)(=O)c2ccc(C(C)C)cc2)CC1)[C@H]1CCc2nc(N)sc2C1
2.1 nM | 328 nM | 17700 nM | 8380 | – | – | – | CCCN(CC[C@H]1CC[C@H](NC(=O)c2ccc(-c3noc(CC)n3)cc2)CC1)[C@H]1CCc2nc(N)sc2C1
1.5 nM | 491 nM | 5000 nM | 3450 | – | – | – | CCCN(CC[C@H]1CC[C@H](NC(=O)c2cccc(-c3noc(CC)n3)c2)CC1)[C@H]1CCc2nc(N)sc2C1
8.1 nM | 102 nM | 7920 nM | 983 | – | – | – | CCCN(CC[C@H]1CC[C@H](NC(=O)/C=C/c2ccccc2OC)CC1)[C@H]1CCc2nc(N)sc2C1
1.2 nM | 52 nM | 5770 nM | 4640 | – | – | – | CCCN(CC[C@H]1CC[C@H](NC(=O)/C=C/c2cccc(Cl)c2)CC1)[C@H]1CCc2nc(N)sc2C1
3 nM | 52 nM | 14400 nM | 4870 | – | – | – | CCCN(CC[C@H]1CC[C@H](NC(=O)c2ccc(-n3cccn3)cc2)CC1)[C@H]1CCc2nc(N)sc2C1
2.5 nM | 27 nM | 4030 nM | 1600 | – | – | – | CCCN(CC[C@H]1CC[C@H](NC(=O)/C=C/c2ccc(Cl)cc2)CC1)[C@H]1CCc2nc(N)sc2C1
1.6 nM | 72 nM | 44000 nM | 27100 | – | – | – | CCCN(CC[C@H]1CC[C@H](NC(=O)c2cccc3ncccc23)CC1)[C@H]1CCc2nc(N)sc2C1
5.9 nM | 64 nM | 26400 nM | 4500 | – | – | – | CCCN(CC[C@H]1CC[C@H](NC(=O)c2cccc3cnccc23)CC1)[C@H]1CCc2nc(N)sc2C1

The next lines start with the compound.

Compound | Ki (D(3) dopamine receptor [1]) | Ki [2] | Ki [3] | Ratio Ki (Rattus norvegicus) | Selectivity ratio [4] | Selectivity ratio [5] | EC50 (D(3) dopamine receptor [6])
CCCN(CC[C@H]1CC[C@H](NS(=O)(=O)c2ccccc2Cl)CC1)[C@H]1CCc2nc(N)sc2C1 | 0.68 nM | – | 9480 nM | – | – | – | –
CCCN(CC[C@H]1CC[C@H](NS(=O)(=O)c2ccc(Cl)nc2)CC1)[C@H]1CCc2nc(N)sc2C1 | 0.63 nM | 28 nM | 8190 nM | 12900 | – | – | –
CCCN(CC[C@H]1CC[C@H](NS(=O)(=O)c2ccccc2)CC1)[C@H]1CCc2nc(N)sc2C1 | 0.79 nM | 57 nM | 23400 nM | 29700 | – | – | –
O=C(NC/C=C/CN1CCN(c2cccc(Cl)c2Cl)CC1)c1ccc(-c2ccccn2)cc1 | – | – | – | – | 100 | > 1000 | –
CCCN(CCN1CCN(c2ccc(-c3ccccc3)cc2)CC1)[C@H]1CCc2nc(N)sc2C1 | – | – | – | – | 100 | > 1000 | –
CCCN(CC[C@H]1CC[C@H](NS(=O)(=O)c2cccc(Cl)c2)CC1)[C@H]1CCc2nc(N)sc2C1 | 1.1 nM | – | 5550 nM | – | – | – | –
CCCN(CC[C@H]1CC[C@H](NS(=O)(=O)c2ccc(C(C)(C)C)cc2)CC1)[C@H]1CCc2nc(N)sc2C1 | 5 nM | 101 nM | 3150 nM | 626 | – | – | –
CCCN(CC[C@H]1CC[C@H](NS(=O)(=O)c2cccc3ccccc23)CC1)[C@H]1CCc2nc(N)sc2C1 | 1.5 nM | 31 nM | 4670 nM | 3160 | – | – | –
CCCN(CC[C@H]1CC[C@H](NS(=O)(=O)c2cccc(F)c2)CC1)[C@H]1CCc2nc(N)sc2C1 | 0.72 nM | – | 10400 nM | – | – | – | –
CCCN(CC[C@H]1CC[C@H](NS(=O)(=O)c2cnccc2Cl)CC1)[C@H]1CCc2nc(N)sc2C1 | 0.93 nM | – | 10700 nM | – | – | – | –
O=C(NCCCCN1CCN(c2cccc(Cl)c2Cl)CC1)c1ccc2c(c1)Cc1ccccc1-2 | – | – | – | – | 100 | > 1000 | –
CCCN(CC[C@H]1CC[C@H](NS(=O)(=O)c2ccc(-c3ccccc3)cc2)CC1)[C@H]1CCc2nc(N)sc2C1 | 41 nM | 75 nM | 1800 nM | 44 | – | – | –
CCCN(CC[C@H]1CC[C@H](NS(=O)(=O)c2ccc3ccccc3c2)CC1)[C@H]1CCc2nc(N)sc2C1 | 1.5 nM | 14 nM | 3690 nM | 2430 | – | – | –
CCCN(CC[C@H]1CC[C@H](NS(=O)(=O)c2ccc(Cl)cc2)CC1)[C@H]1CCc2nc(N)sc2C1 | 0.95 nM | 71 nM | 8290 nM | 8750 | – | – | –
O=C(NCC[C@@H](O)CN1CCN(c2cccc(Cl)c2Cl)CC1)c1cc2ccccc2[nH]1 | – | – | – | – | 100 | > 1000 | –
COc1ccccc1N1CCN(CC(O)CCNC(=O)c2cc3ccccc3[nH]2)CC1 (stereo unspecified) | – | – | – | – | 100 | > 1000 | –
CCCN[C@H]1CCc2nc(N)sc2C1 [PRAMIPEXOLE] | – | – | > 100000 nM | – | – | – | –
CCCN(CC[C@H]1CC[C@H](NS(=O)(=O)c2cccc(C)c2)CC1)[C@H]1CCc2nc(N)sc2C1 | 0.89 nM | 62 nM | 8400 nM | 9470 | – | – | –
CCCN(CC[C@H]1CC[C@H](NS(=O)(=O)c2cccnc2Cl)CC1)[C@H]1CCc2nc(N)sc2C1 | 0.38 nM | 170 nM | 17400 nM | 46300 | – | – | 1.5 nM
